The text below walks through data of PMC9982066, “Inhibition of Ehrlichia chaffeensis infection by cell-permeable macrocyclic peptides that bind type IV secretion effector Etf-1” (PNAS Nexus, 2023).

One assay concerns the target Etf-1 (Ehrlichia chaffeensis, UniProt Q2GG12). Description: FP assay of Etf-1 binding with FAM-labeled peptides. As to the method: The peptides were labeled at their C-terminus with carboxyfluorescein (FAM) through a β-Ala-β-Ala-Lys linker and evaluated for binding to Etf-1 by using a fluorescence polarization (FP) assay. […] This outcome is not unexpected, as screening OBOC libraries is often complicated by false positives, due to the presence of high ligand densities on library beads ([28]).
Fig. 2. Determination of binding affinity of Etf-1-binding peptides by FP assay. […] FAM-labeled peptide (50 nM) was incubated with serially diluted Etf-1 (starting from 25–30 μM in PBS, pH 7.4, supplemented with 5 mM DTT and 0.01% Triton X-100) for 1 h at RT. FP values were measured on a Tecan Infinite M1000 Pro plate reader. Titration curves (n ≥ 3) were fitted using GraphPad Prism and analyzed with TraceDrawer to calculate dissociation constants (KD). […] Data were analyzed using GraphPad Prism and fitted to a four-parameter variable slope equation to determine IC50 values.
Etf-1 and macrocyclic peptides were serially diluted in PBS supplemented with 5 mM DTT and 0.01% Triton X-100 (v/v). FAM-labeled peptides (50 nM) were prepared from a 10-μM DMSO stock and incubated with serially diluted Etf-1 for 1 h at room temperature (RT). Twenty microliters of the solutions were transferred to a black 384-well plate (Greiner Bio-One) and FP values were measured on a Tecan Infinite M1000 Pro plate reader with excitation and emission wavelengths at 470 and 535 nm, respectively. Titration curves (n ≥ 3) were fitted using GraphPad Prism v8.0 (GraphPad, La Jolla, CA, USA), and analyzed with TraceDrawer software v1.8 (Ridgeview Instruments AB, Uppsala, Sweden) to calculate the dissociation constant (KD, in nM).

The subject of assay [1] is E. chaffeensis. Kind of assay: morphological examination of E. chaffeensis infection of THP-1 cells by Diff-Quik staining. To be noted: THP-1 cells, Fig. S4 (with Figs. 5, S3). The protocol: Ehrlichia chaffeensis Arkansas strain ([43]) was cultured in THP-1 cells (ATCC, Manassas, VA, USA) in RPMI 1640 medium (Corning, Manassas, VA, USA) supplemented with 8% FBS (Atlanta Biologicals, Flowery Branch, GA, USA) and 4 mM L-glutamine (at 37°C under 5% CO2 in a humidified atmosphere. THP-1 cells were seeded at 1 × 10^5 cells/well (in 1.5-mL RPMI 1640 culture medium with 8% FBS, 4 mM L-Gln) in a 12-well plate, then infected with host cell-free E. chaffeensis at an MOI (multiplicity of infection, or numbers of bacteria per cell) of ∼30. Cells were cultured in a humidified incubator with 5% CO2 and 95% air. No antibiotic was used throughout the study. At 0.5 h post infection (pi), cells were incubated with 1–10 μM of peptides or with an equal volume of DMSO (solvent control, 2 μL per mL medium). At 2 days pi, cells were washed with 1 mL of PBS, and two drops of cells were cytospun onto glass slides by a Shandon Cytospin 4 cytocentrifuge (Thermo Fisher Scientific), then fixed and stained with HEMA 3 staining solutions (Thermo Fisher Scientific). Ehrlichia infection was observed and images were captured by a SPOT RT digital camera (Diagnostic Instruments, Sterling Heights, MI, USA) coupled to a Nikon Eclipse E400 microscope (Nikon, Melville, NY, USA).

Assay [2] relates to E. chaffeensis. Description: E. chaffeensis infection of THP-1 cells, qPCR of 16S rRNA gene normalized to human actin. Format: cell-based, Ehrlichia chaffeensis. As to the method: Therefore, we investigated whether these Etf-1-binding peptides can prevent the proliferation of E. chaffeensis inside host cells. THP-1 cells were infected with E. chaffeensis, then treated with the peptides at 30 min post infection (pi) for 2 days. Intracellular infection and proliferation of E. chaffeensis inside host THP-1 cells were assessed using quantitative PCR (qPCR) analysis based on E. chaffeensis 16S rRNA gene normalized by human actin (ACT) gene.
Fig. 5. Effects of Etf-1-binding peptides on E. chaffeensis infection of THP-1 cells. Ehrlichia chaffeensis-infected THP-1 cells at […] were incubated with 10 μM of Etf-1-binding macrocyclic peptide or DMSO control for 2 days.
No antibiotic was used throughout the study.
DNA was extracted from each sample using Qiagen blood mini kit according to the manufacturer's instructions (Qiagen, Valencia, CA, USA), and qPCR analysis was performed in an MX3000P qPCR instrument (Stratagene, San Diego, CA, USA) using SYBR Green Real-Time PCR Master Mix (Thermo Fisher Scientific) according to the manufacturer's instructions. Five-fold serial dilutions of the control group were used to generate a standard curve to calculate the relative copy numbers of E. chaffeensis 16S rRNA normalized against human actin genes using the MX3000P software from Stratagene as described previously ([18], [44]).

Starred links: 1 amine or outer side, 2 acyl side, 3 side chain; linkers in the order of their positions; H or OH if unused. Positions of bridges follow the written chain, without caps; N, C: chain ends. Non-standard residues stand in square brackets, D forms with d. Residues, ends and D or L forms follow the SMILES beside them. Trimesoyl = O=C(c1cc(C(=O)[*:2])cc(C(=O)[*:3])c1)[*:1]; Phe(3-Cl) = N[C@@H](Cc1cccc(Cl)c1)C(=O)O; Phe(4-Cl) = N[C@@H](Cc1ccc(Cl)cc1)C(=O)O; Phe(4-F) = N[C@@H](Cc1ccc(F)cc1)C(=O)O; d2Nal = N[C@H](Cc1ccc2ccccc2c1)C(=O)O; βAsp = O=C(O)[C@H](CC(=O)[*:2])N[*:1]; Nle = CCCC[C@H](N)C(=O)O; Orn = NCCC[C@H](N)C(=O)O; Dap = NC[C@H](N)C(=O)O

Chain of Etf-1 (Q2GG12 entry or part of it): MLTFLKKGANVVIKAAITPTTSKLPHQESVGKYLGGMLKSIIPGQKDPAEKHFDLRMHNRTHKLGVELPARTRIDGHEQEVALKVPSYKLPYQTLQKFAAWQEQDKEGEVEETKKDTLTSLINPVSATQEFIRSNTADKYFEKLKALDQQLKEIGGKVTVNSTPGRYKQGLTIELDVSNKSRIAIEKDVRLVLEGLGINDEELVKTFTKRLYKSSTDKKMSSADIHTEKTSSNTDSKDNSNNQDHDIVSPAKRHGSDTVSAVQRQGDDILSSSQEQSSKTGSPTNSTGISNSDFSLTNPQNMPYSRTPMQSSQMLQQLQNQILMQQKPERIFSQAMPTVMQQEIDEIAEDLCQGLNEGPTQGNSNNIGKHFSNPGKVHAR

Consider `CCCC[C@@H]1NC(=O)[C@H](Cc2ccc(O)cc2)NC(=O)c2cc3cc(c2)C(=O)NC[C@H](NC(=O)[C@@H](CC(C)C)NC(=O)CNC(=O)[C@H](CCC(N)=O)NC(=O)[C@@H](CCC(=O)O)NC1=O)C(=O)N[C@@H](Cc1ccc(Cl)cc1)C(=O)N[C@H](Cc1ccc2ccccc2c1)C(=O)N[C@H](CCCNC(=N)N)C(=O)N[C@@H](CCCNC(=N)N)C(=O)N[C@H](CCCNC(=N)N)C(=O)N[C@@H](CCCNC(=N)N)C(=O)N[C@H](C(N)=O)CNC3=O` [Peptide B7-133-4, TMA-Tyr-Nle-glu-Gln-Gly-leu-Dap-4-ClPhe-nal-arg-Arg-arg-Arg-Dap] (Y[Nle][dE]QG[dL][Dap][Phe(4-Cl)][d2Nal][dR]R[dR]R[Dap]-NH2; linker N-7-14 via Trimesoyl), for which binding on Etf-1 was characterised by a dissociation constant (Kd) of 6.5 ± 0.1 µM.

Consider `CC(C)C[C@H]1NC(=O)[C@H](CO)NC(=O)[C@@H](C)NC(=O)[C@H](CCC(N)=O)NC(=O)[C@H](Cc2c[nH]cn2)NC(=O)[C@H](Cc2ccc(O)cc2)NC(=O)c2cc3cc(c2)C(=O)NC[C@H](NC1=O)C(=O)N[C@@H](Cc1ccccc1)C(=O)N[C@H](Cc1ccc2ccccc2c1)C(=O)N[C@H](CCCNC(=N)N)C(=O)N[C@@H](CCCNC(=N)N)C(=O)N[C@H](CCCNC(=N)N)C(=O)N[C@@H](CCCNC(=N)N)C(=O)N[C@H](C(N)=O)CNC3=O` [Peptide B7-3, TMA-Tyr-His-Gln-ala-Ser-leu-Dap-Phe-nal-arg-Arg-arg-Arg-Dap] (YHQ[dA]S[dL][Dap]F[d2Nal][dR]R[dR]R[Dap]-NH2; linker N-7-14 via Trimesoyl), for which binding on Etf-1 was characterised by a dissociation constant (Kd) of 5.8 ± 0.5 µM.

In turn, `CC(C)C[C@H]1NC(=O)[C@H](CO)NC(=O)[C@H]2CCCN2C(=O)[C@H](CCC(N)=O)NC(=O)[C@H](Cc2c[nH]cn2)NC(=O)[C@H](Cc2ccc(O)cc2)NC(=O)c2cc3cc(c2)C(=O)NC[C@H](NC1=O)C(=O)N[C@@H](Cc1cccc(Cl)c1)C(=O)N[C@H](Cc1ccc2ccccc2c1)C(=O)N[C@H](CCCNC(=N)N)C(=O)N[C@@H](CCCNC(=N)N)C(=O)N[C@H](CCCNC(=N)N)C(=O)N[C@@H](CCCNC(=N)N)C(=O)N[C@H](C(N)=O)CNC3=O` [Peptide B7-17, TMA-Tyr-His-Gln-pro-Ser-leu-Dap-3-ClPhe-nal-arg-Arg-arg-Arg-Dap] (YHQ[dP]S[dL][Dap][Phe(3-Cl)][d2Nal][dR]R[dR]R[Dap]-NH2; linker N-7-14 via Trimesoyl) yielded a Kd at Etf-1 of 3.4 ± 0.4 µM.

On to `CC(C)C[C@H]1NC(=O)[C@H](CO)NC(=O)[C@H]2CCCN2C(=O)[C@H](CCC(N)=O)NC(=O)[C@H](Cc2c[nH]cn2)NC(=O)[C@H](Cc2ccc(O)cc2)NC(=O)c2cc3cc(c2)C(=O)NC[C@H](NC1=O)C(=O)N[C@@H](Cc1ccccc1)C(=O)N[C@H](Cc1ccc2ccccc2c1)C(=O)N[C@H](C)C(=O)N[C@@H](CCCNC(=N)N)C(=O)N[C@H](CCCNC(=N)N)C(=O)N[C@@H](CCCNC(=N)N)C(=O)N[C@H](C(N)=O)CNC3=O` [Peptide B7-9, TMA-Tyr-His-Gln-pro-Ser-leu-Dap-Phe-nal-ala-Arg-arg-Arg-Dap] (YHQ[dP]S[dL][Dap]F[d2Nal][dA]R[dR]R[Dap]-NH2; linker N-7-14 via Trimesoyl), for which the Kd at Etf-1 stood at 30 ± 7 µM.

With `CC(C)C[C@H]1NC(=O)[C@H](Cc2ccc(F)cc2)NC(=O)[C@@H](CCC(=O)O)NC(=O)C[C@@H](C(=O)O)NC(=O)[C@H](CCCN)NC(=O)[C@H](CC(=O)O)NC(=O)[C@H](Cc2ccc(O)cc2)NC(=O)c2cc3cc(c2)C(=O)NC[C@H](NC1=O)C(=O)N[C@@H](Cc1ccc(Cl)cc1)C(=O)N[C@H](Cc1ccc2ccccc2c1)C(=O)N[C@H](CCCNC(=N)N)C(=O)N[C@@H](CCCNC(=N)N)C(=O)N[C@H](CCCNC(=N)N)C(=O)N[C@@H](CCCNC(=N)N)C(=O)N[C@H](C(N)=O)CNC3=O` [Peptide B7-95-1, TMA-Tyr-Asp-Orn-isoAsp-glu-Fpa-leu-Dap-4-ClPhe-nal-arg-Arg-arg-Arg-Dap] (YD[Orn][βAsp][dE][Phe(4-F)][dL][Dap][Phe(4-Cl)][d2Nal][dR]R[dR]R[Dap]-NH2; linker N-8-15 via Trimesoyl), the equilibrium dissociation constant (Kd) at Etf-1 turned out to be 3.2 µM.

On to `CCCC[C@@H]1NC(=O)[C@H](CC(=O)O)NC(=O)[C@@H](Cc2ccccc2)NC(=O)[C@H](Cc2ccc(O)cc2)NC(=O)c2cc3cc(c2)C(=O)NC[C@H](NC(=O)[C@@H](CC(C)C)NC(=O)[C@@H](CC(N)=O)NC1=O)C(=O)N[C@@H](Cc1ccc(Cl)cc1)C(=O)N[C@H](Cc1ccc2ccccc2c1)C(=O)N[C@H](CCCNC(=N)N)C(=O)N[C@@H](CCCNC(=N)N)C(=O)N[C@H](CCCNC(=N)N)C(=O)N[C@@H](CCCNC(=N)N)C(=O)N[C@H](C(N)=O)CNC3=O` [Peptide B7-133-3, TMA-Tyr-phe-Asp-Nle-asn-leu-Dap-4-ClPhe-nal-arg-Arg-arg-Arg-Dap] (Y[dF]D[Nle][dN][dL][Dap][Phe(4-Cl)][d2Nal][dR]R[dR]R[Dap]-NH2; linker N-7-14 via Trimesoyl), for which the “E. chaffeensis infection (numbers and sizes of morulae)” value in the assay with E. chaffeensis [1] is “significantly inhibited”. In addition, in the assay on E. chaffeensis [2] (10 μM, 2 days, vs DMSO control), the “inhibition of E. chaffeensis infection” value was “significantly inhibited”. Further, the “dose dependence of inhibition of E. chaffeensis infection” value in the assay on E. chaffeensis [2] (1, 5, and 10 μM) is listed as “dose-dependent manner”. Also, in the assay with E. chaffeensis [2] (THP-1 cells), the “inhibition of E. chaffeensis infection compared with peptide B7 (or B7-16)” value is recorded as “significantly more potent inhibition”.

With `CC(C)C[C@H]1NC(=O)[C@H](CO)NC(=O)[C@H]2CCCN2C(=O)[C@H](CCC(N)=O)NC(=O)[C@H](Cc2c[nH]cn2)NC(=O)[C@H](Cc2ccc(O)cc2)NC(=O)c2cc3cc(c2)C(=O)NC[C@H](NC1=O)C(=O)N[C@@H](Cc1ccccc1)C(=O)N[C@H](Cc1ccc2ccccc2c1)C(=O)N[C@H](CCCNC(=N)N)C(=O)N[C@@H](C)C(=O)N[C@H](CCCNC(=N)N)C(=O)N[C@@H](CCCNC(=N)N)C(=O)N[C@H](C(N)=O)CNC3=O` [Peptide B7-10, TMA-Tyr-His-Gln-pro-Ser-leu-Dap-Phe-nal-arg-Ala-arg-Arg-Dap] (YHQ[dP]S[dL][Dap]F[d2Nal][dR]A[dR]R[Dap]-NH2; linker N-7-14 via Trimesoyl), binding at Etf-1 was characterised by a dissociation constant (Kd) of 30 ± 3 µM.

For orientation: Kd means a measure of binding affinity in units of concentration. A low value points to tighter binding.
